Experimental data: patent publication US7998492B2, “Methods and products related to treatment and prevention of hepatitis C virus infection” (Coley Pharmaceutical Group, Inc., priority 2002, dated 2011)
“Also recorded” adds a separate entry of the source.

Tests used:
[1] = system: PBMCs from normal or HCV infected subjects; experiment: IFN-α secretion by PBMC with Intron A, Ribavirin or CpG alone or in combination (ELISA); assay type: cell-based, human
Excerpt: (§1) All oligonucleotide stocks were resuspended in TE buffer at pH 8.0 (OmniPer®; EM Science, Gibbstown, N.J.). Dilutions of various ODNs were made in RPMI 1640 complete media (Gibco BRL, Grand Island, N.Y.) containing 10% heat inactivated, normal human AB serum (Wisent Inc, St. Bruno, QC) and 1% penicillin/streptomycin (Gibco BRL, Grand Island, N.Y.) just prior to their use in cell assays. For the exogenous IFN-α synergy experiments, Intron A (Interferon Alfa-2b, DIN 02223406, Schering Canada Inc., Pointe-Claire, Quebec, Canada) was added to the ODN solutions to give final concentrations of 125 or 1000 IU/ml. Ribavirin (CAS 36791-04-5, Calbiochem, CN Biosciences Inc., La Jolla, Calif., USA) was reconstituted with sterile distilled water to produce a 500 μm stock and diluted in media as described above, to give a final concentration of 5 μm in wells. Cells were incubated at 37° C. with 5% CO2. After 48 h, cell supernatants were collected from each well and frozen at −80° C.
(§2) Peripheral blood mononuclear cells (PBMCs) were purified by centrifugation over Ficoll-Hypaque (Amersham Pharmacia Biotech, Uppsala, Sweden) at 400×g for, 35 min. Cells were resuspended at a concentration of 10×10^6/ml in RPMI complete media containing 10% normal human AB serum (heat inactivated) and 1% penicillin/streptomycin.
(§3) Freshly isolated PBMCs were resuspended at 10×10^6/ml (2× final concentration) and 100 μl of cells were added to each well of a 96 well flat-bottom plate containing an equal volume of ODN solution (2× final desired concentration). A range of concentrations (1, 3, 6 μg/ml) was tested for each ODN. Cells were incubated at 37° C. with 5% CO2. After 48 h, cell supernatants were collected from each well and frozen at −80° C. until assayed.
(§4) IFN-α, IP-10, IL-10 and IFN-levels in supernatants were measured using commercial ELISA Kits (R&D Systems, Minneapolis, Minn., USA; IP-10, Cat# DIP 100, IL-10, Cat# D1000, IFN-g Cat# DIF50 or PBL Biomedical, IFN-α Cat# 4110S). When measured ELISA values were below the detection limit of the kit as specified by the manufacturer, a value equal to the lowest detectable limit was entered into data tables.

[2] = system: PBMCs from normal subjects; experiment: IFN-α secretion by PBMC from normal subjects after 48 h with CpG ODN (ELISA); assay type: cell-based, human; details: for IFN-α secretion level: PBMC from normal volunteers, 48 h, FIG. 1/3; for R, linear regression of number of pDC against amount of IFN-α secreted: normal subjects, pDC number by FACS
Excerpt: as §1, §2, §3, §4

[3] = system: PBMCs from HCV-infected subjects; experiment: IFN-α secretion by PBMC from HCV chronic carriers after 48 h with CpG ODN (ELISA); assay type: cell-based, human; details: for R, linear regression of number of pDC against amount of IFN-α secreted: HCV infected subjects, pDC number by FACS; for IFN-α secretion level: PBMC from HCV chronic carriers, 48 h, FIG. 1/3/4
Excerpt: as §1, §2, §3, §4

[4] = system: PBMCs from normal or HCV-infected subjects; experiment: IFN-γ secretion by PBMC after 48 h with CpG ODN (ELISA); assay type: cell-based, human; details: HCV-infected and normal PBMCs similar, FIG. 5/6
Method: as §2, §3, §4

[5] = system: PBMCs from normal or HCV-infected subjects; experiment: IP-10 secretion by PBMC after 48 h with CpG ODN (ELISA); assay type: cell-based, human; details: similar in normal subjects and HCV chronic carriers, FIG. 7
Method: as §2, §3, §4

[6] = system: B cells in PBMCs from HCV-infected or normal donors; experiment: B-cell proliferation (3H-thymidine, stimulation index); assay type: cell-based, human; details: HCV-infected and normal populations, 5 days, FIGS. 8 and 9
Method: as §2
Cells were isolated as described above and resuspended at 1×10^6/ml in complete RPMI media 100 μl of cells were added to each well of round-bottom 96 well plates. ODN solutions (100 μl) were added to wells to give the selected range of final concentrations (1, 3, 6 μg/ml). Cells were cultured for 5 days and then pulsed with ^3H-Thymidine (1 μCi/well) for 18 h, before harvesting onto filter paper for measuring radioactivity. Results are reported as stimulation index (SI) with respect to untreated media control.

[7] = adjuvant to a commercial hepatitis B vaccine, phase I/II; cited from earlier work

Compound | induction of IFN-α secretion ([1]; HCV-infected PBMCs, on their own or together, FIG. 11) | induction of IFN-α secretion ([1]; PBMCs from normal or HCV infected subjects, alone or in combination) | effect on the efficacy of CpG ([1]; combined with CpG ODN) | immunostimulatory activity ([1]; human PBMCs) | endogenous IFN-α production ([1]; in combination with Intron A) | IFN-α secretion level [2] | R, linear regression of number of pDC against amount of IFN-α secreted [2] | IFN-α induced relative to the normal level ([3]; HCV chronic carrier PBMC versus normal PBMC, FIG. 1) | R, linear regression of number of pDC against amount of IFN-α secreted [3] | IFN-α secretion level [3] | IFN-γ secretion level [4] | IP-10 secretion level [5] | B cell stimulation [6] | IFN-α secretion level ([3]; listed as B) | IFN-α secretion level ([3]; listed as Class B) | function as vaccine adjuvant [7] | IFN-α secretion level ([3]; listed as C) | synergy with exogenous IFN-α for IFN-α secretion ([1]; PBMCs from HCV infected subjects, combination with Intron-A)
NC(=O)c1ncn([C@@H]2O[C@H](CO)[C@@H](O)[C@H]2O)n1 [Ribavirin] | Neither Ribavirin nor Intron A, on their own or together, resulted in the induction of IFN-α secretion | Neither commercial Intron-A (IFN-α-2b) nor Ribavirin, alone or in combination, were capable of inducing IFN-α secretion | reduced the efficacy of CpG | no immunostimulatory activity | did not enhance endogenous IFN-α production | – | – | – | – | – | – | – | – | – | – | – | – | –
G-G-GGACGACGTCGTGG-G-G-G-G-G (DNA GGGGACGACGTCGTGGGGGGG; chemistry not given here) [SEQ ID NO. 1, A class CpG ODN] | – | – | – | – | – | very high levels | 0.43 | about 50% | 0.02 | higher levels | low levels | Highest levels | poor stimulator of B cells | – | – | – | – | –
TCGTCGTTTTGTCGTTTTGTCGTT [SEQ ID NO. 2] | – | – | – | – | – | only low levels | – | – | – | – | moderate amounts | lowest | strongly activated B cells | the same as those obtained with the normal PBMCs | lower levels | functions well as a vaccine adjuvant | – | –
TCGTCGTTTTCGGCGGCCGCCG (chemistry not given here) [SEQ ID NO. 4, C class CpG ODN] | – | – | – | – | – | moderately high levels | 0.58 | – | 0.08 | – | high concentrations | next highest | strongly activated B cells | – | – | – | the same as those obtained with the normal PBMCs; also recorded: higher levels | synergy
